Read-outs that look alike come from different tables or passages of the source.
Assays:
HeLa cells = assay: Compound screen by flow cytometry: HeLa cell count as surrogate readout of cell viability (z-scoreHeLa); assay type: cell-based, human; conditions: for cell count rep 1 / z-scoreHeLa rep 1: replicate 1; for cell count rep 2 / z-scoreHeLa rep 2: replicate 2; for cell count rep 3 / z-scoreHeLa rep 3: replicate 3; for z-scoreHeLa mean: mean of 3 replicates
Method in brief: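 HeLa cells were infected with GFP-MRSA (mean MOI 6.8 ± 4.6) for 1 h, and extracellular bacteria were killed with 30 µg/ml gentamicin. Cells were then incubated overnight with kinase inhibitors in 5 µg/ml gentamicin, in triplicate against DMSO controls. Flow-cytometric cell count served as a viability surrogate, expressed as a plate z-score.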

intracellular MRSA = assay type: cell-based, Staphylococcus aureus; conditions: for %GFP+ rep 1 / z-scoreMRSA+ rep 1: replicate 1; for %GFP+ rep 2 / z-scoreMRSA+ rep 2: replicate 2; for %GFP+ rep 3 / z-scoreMRSA+ rep 3: replicate 3; for z-scoreMRSA+ mean: mean of 3 replicates
Method in brief: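 HeLa cells infected with GFP-MRSA (MOI ~6.8), gentamicin-cleared, then incubated overnight at 37°C with inhibitors plus 5 µg/ml gentamicin; DMSO as negative control, triplicates. Flow cytometry gave % GFP-positive cells and cell count (viability surrogate); hits by plate z-score (MRSA ≤ -2, HeLa count ≥ -3).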

[1] = PKIS compound screen raw data, HeLa cell count
[2] = compound screen, HeLa cell count
[3] = PKIS compound screen raw data, MRSA-infected HeLa cells
[4] = Yes/No: effect without cell death
[5] = compound screen, MRSA-infected HeLa cells
[6] = PKIS compound screen, Yes/No call
[7] = PKIS compounds raw data, HeLa cell count
[8] = PKIS compound screen, Yes/No call (effect without cell death)
[9] = PKIS compounds raw data, MRSA-infected HeLa cells
[10] = PKIS compound screen, HeLa cell count
[11] = PKIS compound screen, Yes/No call on z-scoreHeLa
[12] = PKIS compound screen, MRSA-infected HeLa cells
[13] = PKIS compound screen, Yes/No call on z-scoreMRSA+

| Structure (SMILES) | cell count rep 1 (HeLa cells; [1]) | cell count rep 2 (HeLa cells; [1]) | cell count rep 3 (HeLa cells; [1]) | %GFP+ rep 1 (intracellular MRSA; [3]) [%] | %GFP+ rep 2 (intracellular MRSA; [3]) [%] | %GFP+ rep 3 (intracellular MRSA; [3]) [%] | cell death (HeLa cells; [6]) | z-scoreHeLa mean (HeLa cells; PKIS compound screen) | z-scoreHeLa rep 1 (HeLa cells; PKIS compound screen) | z-scoreHeLa rep 2 (HeLa cells; PKIS compound screen) | z-scoreHeLa rep 3 (HeLa cells; PKIS compound screen) | cell count rep 1 (HeLa cells; [7]) | cell count rep 2 (HeLa cells; [7]) | cell count rep 3 (HeLa cells; [7]) | effect (intracellular MRSA; [6]) | hit (intracellular MRSA; [8]) | z-scoreMRSA+ mean (intracellular MRSA; PKIS compound screen) | z-scoreMRSA+ rep 1 (intracellular MRSA; PKIS compound screen) | z-scoreMRSA+ rep 2 (intracellular MRSA; PKIS compound screen) | z-scoreMRSA+ rep 3 (intracellular MRSA; PKIS compound screen) | also measured |
| --- | --- | --- | --- | --- | --- | --- | --- | --- | --- | --- | --- | --- | --- | --- | --- | --- | --- | --- | --- | --- | --- |
| COc1ccc(CNC(=O)NC2CCN(c3ccnc(Nc4ccc(F)cc4)n3)CC2)cc1 [GSK1379788A] | 6376 | 5935 | 7721 | 25.3 | 23.5 | 21.9 |  |  |  |  |  |  |  |  |  |  |  |  |  |  | cell death (HeLa cells; Yes/No call from z-scoreHeLa): No; z-scoreHeLa mean (HeLa cells; [2]): 1.43; z-scoreHeLa rep 1 (HeLa cells; [2]): 1.46; z-scoreHeLa rep 2 (HeLa cells; [2]): 1.26; z-scoreHeLa rep 3 (HeLa cells; [2]): 1.57; effect (intracellular MRSA; Yes/No call from z-scoreMRSA+): No; hit (intracellular MRSA; [4]): No; z-scoreMRSA+ mean (intracellular MRSA; [5]): 0.044; z-scoreMRSA+ rep 1 (intracellular MRSA; [5]): 0.00598; z-scoreMRSA+ rep 2 (intracellular MRSA; [5]): 0.22; z-scoreMRSA+ rep 3 (intracellular MRSA; [5]): -0.09 |
| O=C(Nc1ccccc1F)NC1CCN(c2ccnc(Nc3ccc(F)cc3)n2)CC1 [GSK1379800A] |  |  |  |  |  |  | No | 0.79 | 0.80 | 0.32 | 1.24 | 7378 | 6492 | 7551 | No | No | 0.29 | -0.13 | 0.53 | 0.47 | %GFP+ rep 1 (intracellular MRSA; [9]): 26.4%; %GFP+ rep 2 (intracellular MRSA; [9]): 28.8%; %GFP+ rep 3 (intracellular MRSA; [9]): 29.8% |
| COc1ccc(Nc2nccc(N3CCC(NC(=O)C(C)c4ccc(Cl)cc4)CC3)n2)cc1 (stereo not drawn) [GSK1379812A] | 31442 | 27526 | 20779 | 20.9 | 22.5 | 23.9 | No | 0.45 | 0.54 | 0.66 | 0.15 | 6940 | 7004 | 5839 | No | No | 0.50 | 0.81 | 0.11 | 0.60 | z-scoreHeLa mean (HeLa cells; [10]): 0.32; z-scoreHeLa rep 1 (HeLa cells; [10]): 0.21; z-scoreHeLa rep 2 (HeLa cells; [10]): 0.39; z-scoreHeLa rep 3 (HeLa cells; [10]): 0.36; cell death (HeLa cells; [11]): No; z-scoreMRSA+ mean (intracellular MRSA; [12]): 0.71; z-scoreMRSA+ rep 1 (intracellular MRSA; [12]): 0.57; z-scoreMRSA+ rep 2 (intracellular MRSA; [12]): 0.84; z-scoreMRSA+ rep 3 (intracellular MRSA; [12]): 0.73; effect (intracellular MRSA; [13]): No; %GFP+ rep 1 (intracellular MRSA; [9]): 31.2%; %GFP+ rep 2 (intracellular MRSA; [9]): 26.6%; %GFP+ rep 3 (intracellular MRSA; [9]): 30.5% |
| COC(=O)c1cccc(NC(=O)NC2CCN(c3ccnc(NCc4ccc(F)cc4)n3)CC2)c1 [GSK1379860A] | 26314 | 10320 | 10213 | 17.4 | 15.1 | 20.5 | No | -1.76 | -1.69 | -2.71 | -0.89 | 3229 | 1923 | 4200 | No | No | 0.11 | 0.51 | -0.14 | -0.03 | z-scoreHeLa mean (HeLa cells; [10]): -1.64; z-scoreHeLa rep 1 (HeLa cells; [10]): -0.66; z-scoreHeLa rep 2 (HeLa cells; [10]): -2.56; z-scoreHeLa rep 3 (HeLa cells; [10]): -1.70; cell death (HeLa cells; [11]): No; z-scoreMRSA+ mean (intracellular MRSA; [12]): -0.58; z-scoreMRSA+ rep 1 (intracellular MRSA; [12]): -0.37; z-scoreMRSA+ rep 2 (intracellular MRSA; [12]): -1.18; z-scoreMRSA+ rep 3 (intracellular MRSA; [12]): -0.20; effect (intracellular MRSA; [13]): No; %GFP+ rep 1 (intracellular MRSA; [9]): 29.7%; %GFP+ rep 2 (intracellular MRSA; [9]): 25.3%; %GFP+ rep 3 (intracellular MRSA; [9]): 27.1% |
| Cc1ccc(C)c(NC(=O)NCCNc2ccnc(Nc3ccc(F)cc3)n2)c1 [GSK1379878A] | 23015 | 22114 | 18414 | 23.2 | 23.5 | 22.5 |  |  |  |  |  |  |  |  |  |  |  |  |  |  | cell death (HeLa cells; Yes/No call from z-scoreHeLa): No; z-scoreHeLa mean (HeLa cells; [2]): -0.62; z-scoreHeLa rep 1 (HeLa cells; [2]): -1.22; z-scoreHeLa rep 2 (HeLa cells; [2]): -0.54; z-scoreHeLa rep 3 (HeLa cells; [2]): -0.10; effect (intracellular MRSA; Yes/No call from z-scoreMRSA+): No; hit (intracellular MRSA; [4]): No; z-scoreMRSA+ mean (intracellular MRSA; [5]): 0.88; z-scoreMRSA+ rep 1 (intracellular MRSA; [5]): 1.18; z-scoreMRSA+ rep 2 (intracellular MRSA; [5]): 1.12; z-scoreMRSA+ rep 3 (intracellular MRSA; [5]): 0.35 |

— PMC10999543, “Identification of kinase modulators as host-directed therapeutics against intracellular methicillin-resistant Staphylococcus aureus” (Frontiers in Cellular and Infection Microbiology, 2024)
